Test [1] has as its target T1, SIK1 (Homo sapiens, UniProt P57059).
T1 construct: purchased Carna Biosciences 02-131
In words: ADP-Glo kinase assay, SIK1. The test is classed as biochemical. As to conditions: ADP-Glo SIK kinase assay. The essentials:
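ADP-Glo, RT throughout. Enz/substrate + ATP, 120 min; ADP-Glo reagent 40 min (ATP depletion); detection reagent 30 min; luminescence read. Neg ctrl 1% DMSO, pos ctrl 10 μM staurosporine, final concs.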
(In general: ADP-Glo first removes unused ATP, then detects ADP through luciferase.)

The target in test [2] is T2, SIK3 (Homo sapiens, UniProt Q9Y2K2).
T2 construct: purchased SignalChem S12-11G-100
T2 sequence (Q9Y2K2 whole entry): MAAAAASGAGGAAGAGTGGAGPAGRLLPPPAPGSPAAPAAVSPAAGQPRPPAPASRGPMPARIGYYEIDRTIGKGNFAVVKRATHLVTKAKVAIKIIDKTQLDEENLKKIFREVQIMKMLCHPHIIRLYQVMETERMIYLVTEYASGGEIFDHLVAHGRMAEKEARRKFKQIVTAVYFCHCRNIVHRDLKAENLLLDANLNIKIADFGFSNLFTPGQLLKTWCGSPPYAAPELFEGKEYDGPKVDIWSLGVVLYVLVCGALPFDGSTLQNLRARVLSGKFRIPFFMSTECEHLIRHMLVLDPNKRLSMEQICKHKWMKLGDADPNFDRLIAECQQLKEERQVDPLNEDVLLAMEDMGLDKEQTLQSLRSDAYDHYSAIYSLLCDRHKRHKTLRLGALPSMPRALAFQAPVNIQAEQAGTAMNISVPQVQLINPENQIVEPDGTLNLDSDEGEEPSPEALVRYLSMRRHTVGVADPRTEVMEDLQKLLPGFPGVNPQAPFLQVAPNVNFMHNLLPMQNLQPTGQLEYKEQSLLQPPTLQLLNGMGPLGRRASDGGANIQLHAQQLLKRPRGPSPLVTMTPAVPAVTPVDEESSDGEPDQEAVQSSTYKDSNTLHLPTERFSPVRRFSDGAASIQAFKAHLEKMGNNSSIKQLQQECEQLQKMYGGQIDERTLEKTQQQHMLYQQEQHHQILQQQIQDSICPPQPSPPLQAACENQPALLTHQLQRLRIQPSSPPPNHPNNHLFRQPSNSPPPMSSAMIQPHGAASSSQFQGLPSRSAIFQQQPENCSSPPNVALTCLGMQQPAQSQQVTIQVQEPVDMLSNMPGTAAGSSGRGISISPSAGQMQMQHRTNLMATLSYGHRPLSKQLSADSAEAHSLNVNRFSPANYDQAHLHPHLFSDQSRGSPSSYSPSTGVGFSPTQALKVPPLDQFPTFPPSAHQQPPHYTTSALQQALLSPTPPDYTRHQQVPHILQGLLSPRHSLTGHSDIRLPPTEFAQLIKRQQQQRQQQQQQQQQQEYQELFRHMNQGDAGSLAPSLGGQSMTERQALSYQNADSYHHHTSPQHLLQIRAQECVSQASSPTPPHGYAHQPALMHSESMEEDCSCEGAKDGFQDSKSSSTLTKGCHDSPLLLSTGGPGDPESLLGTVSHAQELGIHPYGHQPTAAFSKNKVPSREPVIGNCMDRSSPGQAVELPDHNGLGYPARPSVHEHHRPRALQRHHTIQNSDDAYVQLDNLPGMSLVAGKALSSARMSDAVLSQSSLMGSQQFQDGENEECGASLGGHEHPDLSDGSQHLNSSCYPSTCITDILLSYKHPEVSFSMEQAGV
In words: ADP-Glo kinase assay, SIK3. Format: biochemical. As to conditions: ADP-Glo SIK kinase assay. The method, boiled down:
(§1)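 Enzyme–substrate mix was started with ATP and incubated 120 min at RT. ADP formed was quantified by ADP-Glo: 40 min ATP depletion, then 30 min detection reagent converting ADP to ATP for luciferase luminescence, which rises with kinase activity. Controls: 1% DMSO and 10 μM staurosporine (final).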

In test [3] the test system is LPS triggered IL-10 secretion in monocytes. In words: Monocytes assay: LPS-triggered IL-10 (ELISA). As to conditions: LPS 200 ng/mL, supernatant after 4 h, maximal fold change vs LPS only. Format: cell-based, human. The protocol: SIK inhibition inhibits TNFα and increases IL-10 release in LPS triggered monocyte-derived macrophages (MdM) and dendritic cells (MdDCs) (Clark et al. 2012; Sundberg et al. 2014; Ozanne et al. 2015). This assay evaluates illustrative compounds of the invention for their inhibition of LPS-induced TNFα and LPS triggered IL-10 secretion in monocytes.
PBMCs are isolated from human blood samples (buffycoats). The buffy coat is aseptically transferred into a 50 mL Falcon tube, and diluted 1/2 in PBS. Falcon tubes are filled with 20 mL Lymphoprep™, on top of which 25 mL of the buffy coat is carefully added, tubes are centrifuged for 35 min at 400 g in temperature controlled centrifuge, without brake, at 25° C. PBMCs are aspirated from the white interface layer between sample and Lymphoprep™. PBMCs are washed five times in PBS. Cells are resuspended in RPMI 1640 complete medium supplemented with 10% FBS, 1% P/S, and cell density is determined using a hematologic analyzer (Sysmex XS-500i).
(§2) PBMCs are centrifuged at 300×g for 10 min and resuspended at a density of 1.0*10^7 cells/80 μL Miltenyi buffer (PBS, pH 7.4, 1% FBS, 2 mM EDTA).
(§3) Starting from this point of the protocol all steps are performed on ice. 20 μL of CD14+ micro-beads are added per 1.0*10^7 cells, the tube is mixed and incubated for 15 min in the fridge at 4° C. Cell suspension volume is adjusted to total volume of 100 mL using Miltenyi buffer, mixed gently and subsequently centrifuged for 10 min at 300×g. Supernantant is discarded and cell pellet is resuspended in 12 mL of Miltenyi buffer.
(§4) Four LS columns are placed in the MACS Separator (magnet) from Miltenyi Biotec, and are prewet by rinsing with 3 mL of MACS buffer per column. Three mL of cell suspension is added onto the column (max 1*10^8 of labelled cells/column), and columns are subsequently washed 3 times with 3 mL of Miltenyi buffer.
The columns are removed from the magnets, and 5 mL of Miltenyi buffer are added to the column to flush out the CD14+ fraction by pushing the plunger into the column. The flushed fractions are collected in a fresh 50 mL Falcon and volume is adjusted to 30 mL using Miltenyi buffer, cells are centrifuged for 10 min at 300×g. The obtained cell pellet is resuspended in 10 mL RPMI w/o FBS, and cell density is determined using a hematologic analyser (Sysmex XS-500i). 100 000 cells are seeded in 80 μL per well of a 96-well plate in RPMI 1640 medium supplemented with 10% FBS, 1% P/S.
(§5) A compound dilution plate is made in 100% DMSO by 3-fold dilution of 10 mM stock solution. An intermediate dilution plate (10× final concentration) is made by diluting the compound dilution plate 50-fold in RPMI medium.
10 μL of the 10× final concentration compound is added to the cells and incubated for 1 h at 37° C. before addition of trigger. No trigger conditions/trigger conditions are spiked with equal final DMSO concentrations of 0.2% DMSO. 10 μL of 10×LPS (final conc. 200 ng/mL) solution are added to all wells except for the ‘no trigger wells’ where 10 μL medium is added. Supernatant is collected after 4 h of LPS triggering.
A Lumitrac 600 Greiner 384-well plate is coated with 40 μL of capture antibody (final concentration of 1 μg/mL in 1×PBS) and stored overnight at 4° C. The next day the plate is washed three times with PBST (PBS+0.05% Tween20) and once with PBS followed by the addition of 100 μL of blocking buffer (1% BSA−5% Sucrose) and plates are sealed and incubated for at least 4 h at RT. After washing the plate once with PBST and once with PBS, 40 μL of standard or sample are added (IL-10 standard curve is prepared using a 1/2 serial dilution starting from […]; dilutions are made in dilution buffer (PBS+1% BSA)). Plates are washed twice with PBST, and once with PBS, after which 35 μL of the detection antibody is added (final concentration 0.143 μg/mL diluted in dilution buffer) and plates are incubated for at least 2 h at RT. […]
(In general: An ELISA detects its analyte on a solid surface through an enzyme-linked reagent.)

For test [4], the target named is T3, SIK2 (Homo sapiens, UniProt Q9H0K1).
T3 construct: purchased ThermoFisher Scientific PV4792
T3 sequence (Q9H0K1 whole entry): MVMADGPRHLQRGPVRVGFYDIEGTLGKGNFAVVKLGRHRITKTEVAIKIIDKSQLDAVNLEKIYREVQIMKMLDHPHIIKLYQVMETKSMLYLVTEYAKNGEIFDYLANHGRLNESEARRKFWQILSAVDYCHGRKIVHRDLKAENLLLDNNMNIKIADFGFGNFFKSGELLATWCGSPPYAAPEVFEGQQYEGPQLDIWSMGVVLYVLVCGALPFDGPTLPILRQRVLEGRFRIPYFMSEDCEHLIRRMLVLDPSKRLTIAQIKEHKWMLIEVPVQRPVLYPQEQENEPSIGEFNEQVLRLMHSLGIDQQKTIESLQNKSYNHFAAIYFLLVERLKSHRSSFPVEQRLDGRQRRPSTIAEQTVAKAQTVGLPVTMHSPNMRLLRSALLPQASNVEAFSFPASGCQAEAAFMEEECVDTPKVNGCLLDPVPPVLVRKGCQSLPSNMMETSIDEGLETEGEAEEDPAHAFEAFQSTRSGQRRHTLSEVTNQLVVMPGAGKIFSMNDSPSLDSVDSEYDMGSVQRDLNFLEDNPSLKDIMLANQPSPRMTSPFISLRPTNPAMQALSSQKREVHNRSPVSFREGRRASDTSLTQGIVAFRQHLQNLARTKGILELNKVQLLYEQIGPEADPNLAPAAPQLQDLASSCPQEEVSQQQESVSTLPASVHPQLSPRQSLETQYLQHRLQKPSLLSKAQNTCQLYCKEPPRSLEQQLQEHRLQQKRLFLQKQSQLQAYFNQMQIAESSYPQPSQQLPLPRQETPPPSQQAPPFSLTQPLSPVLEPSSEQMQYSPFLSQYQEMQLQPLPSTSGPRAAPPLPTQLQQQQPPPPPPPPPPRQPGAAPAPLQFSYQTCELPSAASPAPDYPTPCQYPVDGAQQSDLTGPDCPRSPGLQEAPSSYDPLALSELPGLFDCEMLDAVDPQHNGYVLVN
Briefly: ADP-Glo kinase assay, SIK2. Format: biochemical. The conditions noted are these: ADP-Glo SIK kinase assay. The method, boiled down: as §1

The test system of test [5] is LPS-induced TNFα in monocyte-derived macrophages (MdM). In words: MdM assay: LPS-triggered TNFα (ELISA). Format: cell-based, human. The conditions noted are these: Homo sapiens, Macrophage, 20 h, monocyte-derived macrophages, LPS 200 ng/mL, supernatant after 20 h; read-out: TNFα EC50. The procedure: This assay evaluates illustrative compounds of the invention for their inhibition of LPS-induced TNFα and LPS triggered IL-10 secretion in monocyte-derived macrophages.
PBMCs are isolated from human blood samples (buffycoats). The buffy coat is aseptically transferred into a 50 mL Falcon tube, and diluted 1/2 in PBS. Falcon tubes are filled with 20 mL Lymphoprep™, on top of which 25 mL of the buffy coat is carefully added, tubes are centrifuged for 35 min at 400 g in temperature controlled centrifuge, without brake, at 25° C. PBMCs are aspirated from the white interface layer between sample and Lymphoprep™. PBMCs are washed five times in PBS.
as §2, §3, §4
The columns are removed from the magnets, and 5 mL of Miltenyi buffer are added to the column to flush out the CD14+ fraction by pushing the plunger into the column. The flushed fractions are collected in a fresh 50 mL Falcon and volume is adjusted to 30 mL using Miltenyi buffer, cells are centrifuged for 10 min at 300×g. The obtained cell pellet is resuspended in 10 mL RPMI w/o FBS, and cell density is determined using a hematologic analyser (Sysmex XS-500i).
On day 10, MdMs are triggered and compound is added.
as §5
Medium is carefully removed from cell plates using multichannel pipette, and replaced by 80 μL fresh medium. 10 μL of the 10× final concentration compound is added to the cells and incubated for 1 hour at 37° C. before addition of trigger. No trigger conditions/trigger conditions are spiked with equal final DMSO concentrations of 0.2% DMSO. 10 μL of 10×LPS (final conc. 200 ng/mL) solution are added to all wells except for the ‘no trigger wells’ where 10 μL medium is added. Supernatant is collected after 2 h (IL-10 determination) and after 20 h (TNFα determination) of LPS triggering.
The plate is then washed once with PBST (PBS+0.05% Tween20) and once with PBS followed by the addition of 100 μL of blocking buffer (1% Bovine Serum Albumin (BSA)−5% Sucrose) and plates are sealed and incubated for at least 4 h at RT. After washing the plate once with PBST and once with PBS, 40 μL of standard or sample are added (TNFα standard curve is prepared using a 1/2 serial dilution starting from […]; dilutions are made in dilution buffer (PBS+1% BSA)). Plates are washed twice with PBST, and once with PBS, after which 35 μL of the detection antibody is added (final concentration 0.25 μg/mL diluted in dilution buffer) and plates are incubated for at least 2 h at RT. Plates are washed twice with PBST, and once with PBS, where after 35 μL of Strep-HRP conjugate (0.5 μg/mL final concentration diluted in dilution buffer) is added. Plates are incubated in the dark, at RT for at least 45 min but no longer than 1 hour. Plates are washed twice with PBST, and once with PBS.

T1 sequence (P57059 whole entry): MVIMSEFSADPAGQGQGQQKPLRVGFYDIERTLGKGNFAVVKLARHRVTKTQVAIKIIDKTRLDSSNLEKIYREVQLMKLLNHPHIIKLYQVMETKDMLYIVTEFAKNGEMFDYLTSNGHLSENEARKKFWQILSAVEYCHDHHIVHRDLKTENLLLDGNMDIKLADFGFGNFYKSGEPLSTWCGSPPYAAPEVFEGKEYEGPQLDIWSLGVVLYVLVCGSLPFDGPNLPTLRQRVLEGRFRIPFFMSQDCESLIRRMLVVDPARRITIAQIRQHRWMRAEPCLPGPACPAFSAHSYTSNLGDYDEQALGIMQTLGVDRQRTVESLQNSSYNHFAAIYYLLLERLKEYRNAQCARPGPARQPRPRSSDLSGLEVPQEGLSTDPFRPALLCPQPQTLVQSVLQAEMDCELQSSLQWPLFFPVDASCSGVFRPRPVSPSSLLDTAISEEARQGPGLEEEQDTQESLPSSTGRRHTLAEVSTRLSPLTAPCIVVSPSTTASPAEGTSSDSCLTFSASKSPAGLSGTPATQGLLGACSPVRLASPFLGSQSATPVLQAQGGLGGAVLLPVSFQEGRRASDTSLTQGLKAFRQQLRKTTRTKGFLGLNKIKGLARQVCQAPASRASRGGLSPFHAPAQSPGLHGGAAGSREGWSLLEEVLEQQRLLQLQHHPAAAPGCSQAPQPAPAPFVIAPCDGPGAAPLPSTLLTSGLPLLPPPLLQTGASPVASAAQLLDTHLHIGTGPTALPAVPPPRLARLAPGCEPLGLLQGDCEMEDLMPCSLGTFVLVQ

For the molecule `COc1cc(-c2cnc3cc(OCCN4C[C@@H]5C[C@H]4CO5)ccn23)cc2c1C(=O)N(CC(F)(F)F)CC2` [compound 245, 8-methoxy-6-[7-[2-[(1S,4S)-2-oxa-5-azabicyclo[2.2.1]heptan-5-yl]ethoxy]imidazo[1,2-a]pyridin-3-yl]-2-(2,2,2-trifluoroethyl)-3,4-dihydro isoquinolin-1-one], the IC50 – broadly, the concentration that gives 50% inhibition – in test [1] was over 500 nM; in test [2] it was 0.01 to 10 nM; in test [4], 0.01 to 10 nM. The “IL-10 FCmax median” value in test [3] is “+++ (>4.5)”. Also, in test [5], the 50% effective concentration (EC50) (usually the concentration giving half of the maximal effect) lay within 100 to 1000 nM.
For `COc1cc(-c2cnc3cc(OC[C@H]4COCCO4)ccn23)cc(OC(F)F)c1C(=O)NC1CC1` [compound 50, N-cyclopropyl-2-(difluoromethoxy)-4-[7-[[(2R)-1,4-dioxan-2-yl]methoxy]imidazo[1,2-a]pyridin-3-yl]-6-methoxy-benzamide], the half-inhibitory concentration (IC50) in test [1] was 10 to 100 nM; in test [2], 0.01 to 10 nM; in test [4] it was 0.01 to 10 nM. For the same molecule, the EC50 in test [5] was in the range of 100 to 1000 nM.
`COc1cc(-c2cnc3cc(OCCCN4CCOCC4)ccn23)cc(OC(F)F)c1C(=O)NC1CC1` [compound 21, N-cyclopropyl-2-(difluoromethoxy)-6-methoxy-4-[7-(3-morpholinopropoxy)imidazo[1,2-a]pyridin-3-yl]benzamide]: the figures for the IC50 in test [1], in test [2] and in test [4] were 10 to 100 nM, 0.01 to 10 nM and 0.01 to 10 nM, respectively. The EC50 in test [5] is 0.1 to 100 nM.
In the case of `COc1cc(-c2cnc3cc(OCC4CCO4)ccn23)cc(OC(F)F)c1C(=O)NC1CC1` (centres unmarked) [compound 35, N-cyclopropyl-2-(difluoromethoxy)-6-methoxy-4-[7-(oxetan-2-ylmethoxy)imidazo[1,2-a]pyridin-3-yl]benzamide], the results for the half-inhibitory concentration (IC50) in test [1], in test [2] and in test [4] were 10 to 100 nM, 0.01 to 10 nM and 0.01 to 10 nM, respectively. Moreover, the 50% effective concentration (EC50) in test [5] lay within 100 to 1000 nM.
Consider `COc1cc(-c2cnc3cc(OCCN4CC[C@H](F)C4)ccn23)cc(OC(F)F)c1C(=O)NC1CC1` [Cpd 160, N-cyclopropyl-2-(difluoromethoxy)-4-[7-[2-[(3S)-3-fluoropyrrolidin-1-yl]ethoxy]imidazo[1,2-a]pyridin-3-yl]-6-methoxy-benzamide], for which the 50% inhibitory concentration (IC50) fell in the range of 10 to 100 nM in test [1], 0.01 to 10 nM in test [2] and 0.01 to 10 nM in test [4]. Moreover, the EC50 in test [5] was 100 to 1000 nM.
For `COc1cc(-c2cnc3cc(OCc4cnco4)ccn23)cc(OC(F)F)c1C(=O)NC1CC1` [compound 33, N-cyclopropyl-2-(difluoromethoxy)-6-methoxy-4-[7-(oxazol-5-ylmethoxy)imidazo[1,2-a]pyridin-3-yl]benzamide], the half-maximal inhibitory concentration (IC50) in test [1] is 10 to 100 nM; in test [2], 0.01 to 10 nM; in test [4], 0.01 to 10 nM. Besides, the EC50 in test [5] lay within 0.1 to 100 nM.
For `COc1cc(-c2cnc3cc(OC4CC5CCC4C5)ccn23)cc(OC(F)F)c1C(=O)NC1CC1` (centres unmarked) [compound 58, N-cyclopropyl-2-(difluoromethoxy)-6-methoxy-4-(7-norbornan-2-yloxyimidazo[1,2-a]pyridin-3-yl)benzamide], the IC50 in test [1] lay in the range of 10 to 100 nM; in test [2], 0.01 to 10 nM; in test [4], 10 to 100 nM. For the same molecule, the EC50 in test [5] was in the range of 1000 to 5000 nM.
Take `COc1cc(-c2cnc3cc(OCC4CCCCO4)ccn23)cc(OC(F)F)c1C(=O)NC1CC1` (centres unmarked) [compound 48, N-cyclopropyl-2-(difluoromethoxy)-6-methoxy-4-[7-(tetrahydropyran-2-ylmethoxy)imidazo[1,2-a]pyridin-3-yl] benzamide]: the half-maximal inhibitory concentration (IC50) was in the range of 10 to 100 nM in test [1], 0.01 to 10 nM in test [2] and 0.01 to 10 nM in test [4]. Also, the EC50 in test [5] was in the range of 0.1 to 100 nM.
With `O=C1c2c(cc(-c3cnc4cc(OCCN5CCOCC5)ccn34)cc2OC(F)F)CCN1C1CC1` [Cpd 224, 2-cyclopropyl-8-(difluoromethoxy)-6-[7-(2-morpholinoethoxy)imidazo [1,2-a]pyridin-3-yl]-3,4-dihydroisoquinolin-1-one], the figures for the IC50 in test [1], in test [2] and in test [4] were 100 to 500 nM, 0.01 to 10 nM and 0.01 to 10 nM, respectively. Moreover, the half-maximal effective concentration (EC50) in test [5] is 100 to 1000 nM.
For the molecule `COc1cc(-c2cnc3cc(OCCCN4CCOCC4)ccn23)cc2c1C(=O)N(CC(F)(F)F)CC2` [compound 55, 8-methoxy-6-[7-(3-morpholinopropoxy)imidazo[1,2-a]pyridin-3-yl]-2-(2,2,2-trifluoroethyl)-3,4-dihydro isoquinolin-1-one], the concentration for half-maximal inhibition (IC50) lay in the range of 100 to 500 nM in test [1], 0.01 to 10 nM in test [2] and 0.01 to 10 nM in test [4]. The EC50 in test [5] fell in the range of 100 to 1000 nM.

The values are drawn from US12264156B2, “Compounds and pharmaceutical compositions thereof for the treatment of diseases” (GALAPAGOS NV, priority 2018, dated 2025).
